According to patent US5326882A, “Chemiluminescent 3-(substituted Adamant-2'-Ylidene) 1,2-dioxetanes” (Tropix, Inc., priority 1992, dated 1994):

Columns and labels:
alkaline phosphatase [1] = target: T1, alkaline phosphatase (Bos taurus, UniProt P19111); assay: Half-time to plateau at low alkaline phosphatase concentration (Example XLI); assay type: biochemical; conditions: 0.4 mM dioxetane at pH 10.0; 31.5° C.; 2.53 × 10^-13 M alkaline phosphatase
alkaline phosphatase [2] = target: T1, alkaline phosphatase; assay: Chemiluminescent signal-to-noise levels with enhancers (Example XXIV); assay type: biochemical
Protocol: The chemiluminescent signal to noise levels were obtained with 2.83×10^-13 M alkaline phosphatase and various R-substituted adamantyl 1,2-dioxetane phosphates in the presence of several enhancers. All measurements were performed in a Berthold LB952T luminometer at room temperature. First, the background chemiluminescence levels (signal in the absence of the enzyme) of each sample (in triplicate) were measured. Each sample consisted of 0.2 μmoles of dioxetane in 0.45 ml of 0.1 M diethanolamine, 1 mM MgCl2, pH 10.0, without or with 1 mg/ml of the indicated enhancer. Tubes were inserted into the luminometer and the luminescence intensity was measured. Next, the tubes were removed from the luminometer and alkaline phosphatase (50 μl containing 1.415×10^-16 moles) was added to each tube, and the luminescence intensity was measured at 5 and 20 minutes after substrate addition. The final concentration of dioxetane in each tube was 0.4 mM.
All enhancers used at 1 mg/ml in 0.1 M DEA, pH 10. Alkaline phosphatase concentration=2.83×10^-13 M. Measurements performed in a Berthold LB952T Luminometer.

alkaline phosphatase [3] = target: T1, alkaline phosphatase; assay: Detection limits for alkaline phosphatase, Berthold LB952T (Example XXII); assay type: biochemical; conditions: twice background
Protocol: (§1) The detection means for alkaline phosphatase with different chemiluminescent 1,2-dioxetane substrates were determined as follows: Duplicates of serial dilutions (1 to 3) of alkaline phosphates were incubated at room temperature with 0.4 mM dioxetane in 0.1 M diethanolamine, 1 mM MgCl2, pH 10.0, containing 1 mg/ml of either of the polymeric enhancers Enhancer 1 or Enhancer 2, in […].
(§2) Following either a 5 or a 20 minute incubation with a substrate, the chemiluminescence intensity was measured as a 5 second integrated Relative Light Units (RLU) and plotted as in FIG. 10. […] The alkaline phosphatase concentrations at twice background were used as the detection limits in Table 5.

[4] = target: T2, alkaline phosphatase-labeled DNA probe (Bos taurus, UniProt P19111); assay: Alkaline phosphatase-labeled DNA probe detection in membrane with and without BDMQ blocking step (Example XV); conditions: for Detection limit (in picograms DNA) 5. min. exp.: five minute exposure 40 minutes after dioxetane addition; for Detection limit (in picograms DNA) 1 min. exp.: one minute exposure 77 minutes after dioxetane addition
T2 construct: purchased Tropix, Inc
Protocol: pBr 322 plasmid (4700 bp) was subjected to a nick translation process using a Trans-Light kit (Tropix, Inc., Bedford, Mass.) to generate a mixture of biotinylated single stranded polynucleotides of 200-2000 bps in length.
This mixture was dotted onto a dry BIODYNE A membrane as five parallel columns of dots of the following concentrations:
The membrane was subjected to ultraviolet irradiation (UVP Mineral Light; UVP, San Gabriel, Calif.) for 3 minutes to fix the DNA to the surface of the membrane, then air dried. Next, the membrane was blocked in 0.2% casein/0.1% Tween 20 detergent in PBS for 1 hour, following which 1/5000 diluted avidin-alkaline phosphatase conjugate (Tropix, Inc.) in 0.2% casein in PBS was added. The membrane was then incubated for 30 minutes, washed three times (for 5 minutes each time) in 0.2% casein/0.1% Tween 20 detergent in PBS and washed once for five minutes in aqueous 0.1M diethanolamine containing 1 mm magnesium chloride and 0.02% sodium azide, pH 10.0 (substrate buffer).
Next, the five columns of rows of dots 1-5 were individually cut from the membrane ("strips 1-5"), as were the five columns of rows of dots 6-10 ("strips 6-10"). Strips 1-5 were washed with substrate buffer for 30 minutes. Strips 6-10 were blocked in 0.1% BDMQ in substrate buffer for 30 minutes. Both sets of strips were then incubated for 5 minutes in substrate buffer, then individually incubated for five minutes in aqueous solutions (0.25 mM) of 1,2-dioxetanes as indicated below:
All strips were then placed in camera luminometers and exposed on Polaroid Type 612 instant black and white film.

alkaline phosphatase [5] = target: T1, alkaline phosphatase; assay: Alkaline phosphatase detection limits, LabSystems Luminoskan (Example XXV); assay type: biochemical
Protocol: as §1, §2
The luminometer used in this example was LabSystems Luminoskan microtiter plate reader.

alkaline phosphatase [6] = target: T1, alkaline phosphatase; assay: Alkaline phosphatase detection limits, Wilj microtiter plate luminometer (Example XXVI); assay type: biochemical; conditions: 23 MINUTE INCUBATION
[7] = target: T3, alkaline phosphatase (calf intestine; Biozyme) (Bos taurus, UniProt P19111); assay: Total dephosphorylation, chemiluminescence decay (Example XIII); assay type: biochemical; conditions: 30° C., carbonate/bicarbonate buffer
T3 construct: purchased Biozyme; host or cells: calf intestine
Protocol: A comparison of the total luminescence emission from AMPPD and from the corresponding 1,2-dioxetanes whose adamant-2'-ylidene groups are monosubstituted with hydroxy (A and B isomers), chloro and bromo groups was made by carrying out total dephosphorylation experiments on each of these compounds.
An aqueous solution of the 1,2-dioxetane (4.0 mm) in 0.05M sodium carbonate/sodium bicarbonate containing 1 mM magnesium chloride was prepared and then equilibrated at 30° C. Ten μl of a 7.64×10M aqueous solution of alkaline phosphatase (calf intestine; Biozyme) was then added, and the chemiluminescence from the resulting solution was recorded using a Turner Model 20E luminometer (Turner Instruments; Sunnyvale, Calif.).
The rates of chemiluminescence decay for each of the five compounds in question, expressed in relative light units (RLU's) per minute, are given in the following table.

[8] = enhancer NONE, 5 min, alkaline phosphatase 2.83×10^-13 M

T1 sequence (P19111 20-506 limits assumed): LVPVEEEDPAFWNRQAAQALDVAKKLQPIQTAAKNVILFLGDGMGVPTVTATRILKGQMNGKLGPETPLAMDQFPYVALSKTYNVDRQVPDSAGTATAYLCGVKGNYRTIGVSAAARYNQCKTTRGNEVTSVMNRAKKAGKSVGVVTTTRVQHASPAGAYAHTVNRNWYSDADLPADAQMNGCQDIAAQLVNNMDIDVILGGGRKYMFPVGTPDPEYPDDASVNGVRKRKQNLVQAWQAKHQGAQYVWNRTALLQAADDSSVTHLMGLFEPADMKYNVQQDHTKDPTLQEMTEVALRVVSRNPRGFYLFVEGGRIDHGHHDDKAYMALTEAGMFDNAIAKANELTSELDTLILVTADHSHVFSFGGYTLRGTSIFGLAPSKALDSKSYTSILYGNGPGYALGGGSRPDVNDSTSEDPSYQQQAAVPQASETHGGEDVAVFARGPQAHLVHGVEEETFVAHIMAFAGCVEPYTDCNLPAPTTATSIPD
T3 sequence (P19111 20-506 limits assumed): as above
T2 sequence (P19111 20-506 limits assumed): as above
T2 sequence (P02701 25-152 partner): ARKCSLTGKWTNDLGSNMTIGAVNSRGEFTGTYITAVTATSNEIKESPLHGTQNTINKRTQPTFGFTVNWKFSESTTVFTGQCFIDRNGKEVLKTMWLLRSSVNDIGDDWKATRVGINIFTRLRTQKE

COC12CC3CC(C1)C1(OOC1(OC)c1cccc(OP(=O)(O)O)c1)C(C3)C2 (single isomer, unassigned) [CH3 O-AMPPD-A]
HALF-TIME TO PLATEAU (min.) AL LOW ALK PHOS CONCENTRATION (alkaline phosphatase [1]): 0.86 min

COC1(c2cccc(OP(=O)(O)O)c2)OOC12C1CC3CC2CC(O)(C3)C1 (single isomer, unassigned) [HO-AMPPD]
chemiluminescent signal-to-noise level (alkaline phosphatase [2]; EMERALD 1 1 mg/ml, 5 min): 307 | chemiluminescent signal-to-noise level (alkaline phosphatase [2]; EMERALD 1 1 mg/ml, 20 min): 386 | chemiluminescent signal-to-noise level (alkaline phosphatase [2]; EMERALD 2 1 mg/ml, 5 min): 247 | chemiluminescent signal-to-noise level (alkaline phosphatase [2]; EMERALD 2 1 mg/ml, 20 min): 299 | chemiluminescent signal-to-noise level (alkaline phosphatase [2]; SAPPHIRE 1 1 mg/ml, 5 min): 229 | chemiluminescent signal-to-noise level (alkaline phosphatase [2]; SAPPHIRE 1 1 mg/ml, 20 min): 305 | chemiluminescent signal-to-noise level (alkaline phosphatase [2]; SAPPHIRE 2 1 mg/ml, 5 min): 466 | chemiluminescent signal-to-noise level (alkaline phosphatase [2]; SAPPHIRE 2 1 mg/ml, 20 min): 643 | chemiluminescent signal-to-noise level (alkaline phosphatase [2]; [8]): 55 | chemiluminescent signal-to-noise level (alkaline phosphatase [2]; enhancer NONE, 20 min): 73 | Detection limit for alkaline phosphatase (alkaline phosphatase [3]; ENHANCER 1, 5 MIN): 3.0 femtomoles/liter | Detection limit for alkaline phosphatase (alkaline phosphatase [3]; ENHANCER 1, 20 MIN): 0.8 femtomoles/liter | Detection limit for alkaline phosphatase (alkaline phosphatase [3]; ENHANCER 2, 5 MIN): 1.0 femtomoles/liter | Detection limit for alkaline phosphatase (alkaline phosphatase [3]; ENHANCER 2, 20 MIN): 0.3 femtomoles/liter

COC1(c2cccc(OP(=O)(O)O)c2)OOC12C1CC3CC2CC(I)(C3)C1 (single isomer, unassigned) [ISPD-A]
HALF-TIME TO PLATEAU (min.) AL LOW ALK PHOS CONCENTRATION (alkaline phosphatase [1]): 0.64 min

COC1(c2cccc(OP(=O)(O)O)c2)OOC12C1CC3CC2CC(I)(C3)C1 (single isomer, unassigned) [ISPD-B]
HALF-TIME TO PLATEAU (min.) AL LOW ALK PHOS CONCENTRATION (alkaline phosphatase [1]): 0.70 min

COC1(c2cccc(OP(=O)(O)O)c2)OOC12C1CC3CC2CC(OC(C)C)(C3)C1 (single isomer, unassigned) [i-PrO-AMPPD-A]
HALF-TIME TO PLATEAU (min.) AL LOW ALK PHOS CONCENTRATION (alkaline phosphatase [1]): 0.93 min

COC1(c2cccc(OP(=O)(O)O)c2)OOC12C1CC3CC2CC(OC(C)C)(C3)C1 (single isomer, unassigned) [i-PrO-AMPPD-B]
HALF-TIME TO PLATEAU (min.) AL LOW ALK PHOS CONCENTRATION (alkaline phosphatase [1]): 0.68 min

COC1(c2cccc(OP(=O)(O)O)c2)OOC12C1CC3CC2CC(Br)(C3)C1 (centres unmarked) [Br-AMPPD, disodium 3-(4-methoxyspiro-[1,2-dioxetane-3,2'-(5'-bromo)tricyclo[3.3.1.1^3,7]decan]-4-yl) phenyl phosphate]
Detection limit (in picograms DNA) 5. min. exp. ([4]; BDMQ blocking step): 0.313 picograms DNA | Detection limit (in picograms DNA) 1 min. exp. ([4]; BDMQ blocking step): 0.313 picograms DNA | Detection limit (in picograms DNA) 5. min. exp. ([4]; no BDMQ blocking step): 1.250 picograms DNA | Detection limit (in picograms DNA) 1 min. exp. ([4]; no BDMQ blocking step): 2.500 picograms DNA | chemiluminescent signal-to-noise level (alkaline phosphatase [2]; EMERALD 1 1 mg/ml, 5 min): 149 | chemiluminescent signal-to-noise level (alkaline phosphatase [2]; EMERALD 1 1 mg/ml, 20 min): 915 | chemiluminescent signal-to-noise level (alkaline phosphatase [2]; EMERALD 2 1 mg/ml, 5 min): 315 | chemiluminescent signal-to-noise level (alkaline phosphatase [2]; EMERALD 2 1 mg/ml, 20 min): 503 | chemiluminescent signal-to-noise level (alkaline phosphatase [2]; SAPPHIRE 1 1 mg/ml, 5 min): 383 | chemiluminescent signal-to-noise level (alkaline phosphatase [2]; SAPPHIRE 1 1 mg/ml, 20 min): 566 | chemiluminescent signal-to-noise level (alkaline phosphatase [2]; SAPPHIRE 2 1 mg/ml, 5 min): 688 | chemiluminescent signal-to-noise level (alkaline phosphatase [2]; SAPPHIRE 2 1 mg/ml, 20 min): 1019 | chemiluminescent signal-to-noise level (alkaline phosphatase [2]; [8]): 77 | chemiluminescent signal-to-noise level (alkaline phosphatase [2]; enhancer NONE, 20 min): 92 | Alkaline phosphatase detection limit (at 2× background) (alkaline phosphatase [5]; SAPPHIRE II, 5 MINUTE INCUBATION): 0.0004 pM | Alkaline phosphatase detection limit (at 2× background) (alkaline phosphatase [5]; SAPPHIRE II, 20 MINUTE INCUBATION): 0.00039 pM | Alkaline phosphatase detection limit (at 2× background) (alkaline phosphatase [5]; SAPPHIRE, 5 MINUTE INCUBATION): 0.0027 pM | Alkaline phosphatase detection limit (at 2× background) (alkaline phosphatase [5]; SAPPHIRE, 20 MINUTE INCUBATION): 0.0004 pM | Alkaline phosphatase detection limit (at 2× background) (alkaline phosphatase [6]; SAPPHIRE II): 0.00074 pM | Alkaline phosphatase detection limit (at 2× background) (alkaline phosphatase [6]; SAPPHIRE): 0.00021 pM | Total Decay Time [7]: 40 min | Decay Rate I ([7]; RLU's per minute): 1.2 RLU's per minute | Decay Rate II ([7]; RLU's per minute): 0.8 RLU's per minute | Detection limit for alkaline phosphatase (alkaline phosphatase [3]; ENHANCER 1, 5 MIN): 2.6 femtomoles/liter | Detection limit for alkaline phosphatase (alkaline phosphatase [3]; ENHANCER 1, 20 MIN): 0.5 femtomoles/liter | Detection limit for alkaline phosphatase (alkaline phosphatase [3]; ENHANCER 2, 5 MIN): 0.4 femtomoles/liter | Detection limit for alkaline phosphatase (alkaline phosphatase [3]; ENHANCER 2, 20 MIN): 0.3 femtomoles/liter

COC1(c2cccc(OP(=O)(O)O)c2)OOC12C1CC3CC2CC(Br)(C3)C1 (centres unmarked) [BrSPD]
HALF-TIME TO PLATEAU (min.) AL LOW ALK PHOS CONCENTRATION (alkaline phosphatase [1]): 0.70 min

COC1(c2cccc(OP(=O)(O)O)c2)OOC12C1CC3CC2CC(Cl)(C3)C1 (centres unmarked) [CSPD]
HALF-TIME TO PLATEAU (min.) AL LOW ALK PHOS CONCENTRATION (alkaline phosphatase [1]): 0.71 min

COC1(c2cccc(OP(=O)(O)O)c2)OOC12C1CC3CC2CC(F)(C3)C1 (centres unmarked) [FSPD]
HALF-TIME TO PLATEAU (min.) AL LOW ALK PHOS CONCENTRATION (alkaline phosphatase [1]): 0.74 min

CCCCOC12CC3CC(C1)C1(OOC1(OC)c1cccc(OP(=O)(O)O)c1)C(C3)C2 (centres unmarked) [n-BuO-AMPPD]
HALF-TIME TO PLATEAU (min.) AL LOW ALK PHOS CONCENTRATION (alkaline phosphatase [1]): 0.71 min
